One test deals with GM01896 cells (MPS II dermal fibroblasts). As to the kind of experiment: Assay 1: MPS cellular assay, MPS II (heparan sulfate disaccharide biomarkers by LC-MS). The class given is cell-based, human. To be noted: Assay 1 for MPS II, heparan sulfate disaccharide biomarkers (I2a4, I2a6, I2S0 and/or I2S6), read-out: IC50 Range. In short, it runs like this: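 MPS II patient dermal fibroblasts (GM01896) treated with compound at ≤30 μM for 4 to 21 days. Heparan sulfate GAGs isolated by anion exchange, digested with heparinases I-III, aniline-tagged against [13C6]aniline standards and quantified by LC-MS; IC50 from curve fitting. Viability monitored by alamar blue or ATP.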
In the case of `Cc1nn(C)c2cc(-c3cc(Nc4ccc(-n5cccn5)cc4)nc(N4CCOCC4)n3)ccc12` [[6-(1,3-dimethyl(1H-indazol-6-yl))-2-morpholin-4-ylpyrimidin-4-yl](4-pyrazolylphenyl)amine], the IC50 is less than 500 nM.

Staying with this test, now noted: Homo sapiens, Fibroblast, Assay 1 for MPS II, heparan sulfate disaccharide biomarkers (I2a4, I2a6, I2S0 and/or I2S6), read-out: IC50 Range.
For the compound `Cn1cnc2ccc(-c3cc(Nc4ccc(C(N)=O)cc4)nc(N4CCOCC4)n3)cc21` [4-{[6-(1-methylbenzimidazol-6-yl)-2-morpholin-4-ylpyrimidin-4-yl]amino}benzamide], the IC50 was in the range of 500 to 1000 nM.
Consider `Cn1ncc2ccc(-c3cc(Nc4ccc(N5CN=NC5=O)cc4)nc(N4CCOCC4)n3)cc21` [4-(4-{[6-(1-methyl(1H-indazol-6-yl))-2-morpholin-4-ylpyrimidin-4-yl]amino}phenyl)-1,2,4-triazolin-5-one], for which the IC50 was 1000 to 5000 nM.
On to `Cn1nc(CCN2CCOCC2)c2ccc(-c3cc(Nc4ccc5ccn(C6CC6)c5c4)nc(N4CCOCC4)n3)cc21` [(1-cyclopropylindol-6-yl) {6-[1-methyl-3-(2-morpholin-4-ylethyl)(1H-indazol-6-yl)]-2-morpholin-4-ylpyrimidin-4-yl}amine], for which the IC50 lay in the range of 1000 to 5000 nM.
On to `Clc1ccc(Nc2cc(-c3ccc4ncn(CCN5CCCC5)c4c3)nc(N3CCOCC3)n2)cc1` [(4-chlorophenyl){2-morpholin-4-yl-6-[1-(2-pyrrolidinylethyl)benzimidazol-6-yl]pyrimidin-4-yl}amine], for which the IC50 was in the range of 500 to 1000 nM.
Consider `Cn1ncc2ncc(-c3cc(Nc4ccc(-c5nnc[nH]5)cc4)nc(N4CCOCC4)n3)cc21` [(4-(4H-1,2,4-triazol-3-yl)phenyl)[6-(1-methylpyrazolo[4,5-b]pyridin-6-yl)-2-morpholin-4-ylpyrimidin-4-yl]amine], for which the IC50 is less than 500 nM.
As for `CN1CCN(CCCn2ncc3ccc(-c4cc(Nc5ccc(Cl)cc5)nc(N5CCOCC5)n4)cc32)CC1` [(4-chlorophenyl)(6-{1-[3-(4-methylpiperazinyl)propyl](1H-indazol-6-yl)}-2-morpholin-4-ylpyrimidin-4-yl)amine], the IC50 lay in the range of 500 to 1000 nM.
For the compound `Cn1ccc2cc(Nc3cc(-c4ccc5cnn(C)c5c4)nc(N4CCOCC4)n3)ccc21` [[6-(1-methyl(1H-indazol-6-yl))-2-morpholin-4-ylpyrimidin-4-yl](1-methylindol-5-yl)amine], the concentration for half-maximal inhibition (IC50) was 1000 to 5000 nM.
For `CNC(=O)c1ccc(Nc2cc(-c3ccc4c(c3)ncn4C)nc(N3CCOCC3)n2)cc1` [N-methyl(4-{[6-(1-methylbenzimidazol-5-yl)-2-morpholin-4-ylpyrimidin-4-yl]amino}phenyl)carboxamide], the IC50 is less than 500 nM.
Regarding `Cc1nn(C)c2cc(-c3cc(Nc4ccc(-c5ccn(C)n5)cc4)nc(N4CCOCC4)n3)ccc12` [[6-(1,3-dimethyl(1H-indazol-6-yl))-2-morpholin-4-ylpyrimidin-4-yl][4-(1-methylpyrazol-3-yl)phenyl]amine], the IC50 was 1000 to 5000 nM.
Regarding `Cn1ccc(-c2ccc(Nc3cc(-c4ccc5cnn(C)c5c4)nc(N4CCOCC4)n3)cc2)n1` [[6-(1-methyl(1H-indazol-6-yl))-2-morpholin-4-ylpyrimidin-4-yl][4-(1-methylpyrazol-3-yl)phenyl]amine], the IC50 is 500 to 1000 nM.
Same read-out and setting: then `CN(C)CCn1ncc2ccc(-c3cc(Nc4ccc(Cl)cc4)nc(N4CCOCC4)n3)cc21` [[2-(6-{6-[(4-chlorophenyl)amino]-2-morpholin-4-ylpyrimidin-4-yl}(1H-indazolyl))ethyl]dimethylamine], with 500 to 1000 nM; and `Cc1c(C)n(C)c2cc(Nc3cc(-c4ccc5cnn(C)c5c4)nc(N4CCOCC4)n3)ccc12` [[6-(1-methyl(1H-indazol-6-yl))-2-morpholin-4-ylpyrimidin-4-yl](1,2,3-trimethylindol-6-yl)amine], with 1000 to 5000 nM.
On the same count and under the same terms, then `Cc1ccc(Nc2cc(-c3ccc4c(c3)ncn4C)nc(N3CCOCC3)n2)cc1` [[6-(1-methylbenzimidazol-5-yl)-2-morpholin-4-ylpyrimidin-4-yl](4-methylphenyl)amine], with 500 to 1000 nM; and `Cc1nn(C)c2cc(-c3cc(Nc4cc(Cl)c5ccn(C)c5c4)nc(N4CCOCC4)n3)ccc12` [[6-(1,3-dimethyl(1H-indazol-6-yl))-2-morpholin-4-ylpyrimidin-4-yl](4-chloro-1-methylindol-6-yl)amine], with 1000 to 5000 nM; and `Cc1c(Nc2ccc(Cl)cc2)nc(N2CCOCC2)nc1-c1ccc2cnn(C)c2c1` [(4-chlorophenyl)[5-methyl-6-(1-methyl(1H-indazol-6-yl))-2-morpholin-4-ylpyrimidin-4-yl]amine], with 1000 to 5000 nM.
In the case of `Cn1cnc2ccc(-c3cc(Nc4ccccc4)nc(N4CCOCC4)n3)cc21` [[6-(1-methylbenzimidazol-6-yl)-2-morpholin-4-ylpyrimidin-4-yl]phenylamine], the IC50 is 1000 to 5000 nM.
For `Cc1nn(C)c2cc(-c3cc(Nc4ccc(-c5ccc[nH]5)cc4)nc(N4CCOCC4)n3)ccc12` [[6-(1,3-dimethyl(1H-indazol-6-yl))-2-morpholin-4-ylpyrimidin-4-yl](4-pyrrol-2-ylphenyl)amine], the IC50 is less than 500 nM.
With `Cn1ccc2ccc(Nc3cc(-c4ccc5cnn(C)c5c4)nc(N4CCOCC4)n3)cc21` [[6-(1-methyl(1H-indazol-6-yl))-2-morpholin-4-ylpyrimidin-4-yl](1-methylindol-6-yl)amine], the IC50 was less than 500 nM.
In the case of `Cc1cn(C)c2cc(Nc3cc(-c4ccc5c(CCN6CCOCC6)nn(C)c5c4)nc(N4CCOCC4)n3)ccc12` [(1,3-dimethylindol-6-yl){6-[1-methyl-3-(2-morpholin-4-ylethyl)(1H-indazol-6-yl)]-2-morpholin-4-ylpyrimidin-4-yl}amine], the IC50 fell in the range of 500 to 1000 nM.
With `Clc1ccc(Nc2cc(-c3ccc4ncn(CCCN5CCCC5)c4c3)nc(N3CCOCC3)n2)cc1` [(4-chlorophenyl){2-morpholin-4-yl-6-[1-(3-pyrrolidinylpropyl)benzimidazol-6-yl]pyrimidin-4-yl}amine], the IC50 was in the range of 500 to 1000 nM.
On to `Clc1ccc(Nc2cc(-c3ccc4c(cnn4CCN4CCOCC4)c3)nc(N3CCOCC3)n2)cc1` [(4-chlorophenyl){2-morpholin-4-yl-6-[1-(2-morpholin-4-ylethyl)(1H-indazol-5-yl)]pyrimidin-4-yl}amine], for which the IC50 is 1000 to 5000 nM.
On to `CNC(=O)c1ccc(Nc2cc(-c3ccc4c(c3)ncn4CCN(C)C)nc(N3CCOCC3)n2)cc1` [{4-[(6-{1-[2-(dimethylamino)ethyl]benzimidazol-5-yl}-2-morpholin-4-ylpyrimidin-4-yl)amino]phenyl}-N-methylcarboxamide], for which the IC50 lay within 1000 to 5000 nM.
Same read-out and setting: then `Cc1nn(C)c2cc(-c3cc(Nc4ccc(Cl)cc4)nc(N4CCOCC4)n3)ncc12` [[6-(1,3-dimethylpyrazolo[5,4-d]pyridin-6-yl)-2-morpholin-4-ylpyrimidin-4-yl](4-chlorophenyl)amine], with less than 500 nM.
Take `CNC(=O)c1ccc(Nc2cc(-c3ccc4cnn(C5CC5)c4c3)nc(N3CCOCC3)n2)cn1` [(5-{[6-(1-cyclopropyl(1H-indazol-6-yl))-2-morpholin-4-ylpyrimidin-4-yl]amino}(2-pyridyl))-N-methylcarboxamide]: the IC50 is less than 500 nM.
With `CN1CCN(CCn2ncc3ccc(-c4cc(Nc5ccc(Cl)cc5)nc(N5CCOCC5)n4)cc32)CC1` [(4-chlorophenyl)(6-{1-[2-(4-methylpiperazinyl)ethyl](1H-indazol-6-yl)}-2-morpholin-4-ylpyrimidin-4-yl)amine], the IC50 is 500 to 1000 nM.

The IC50 is the midpoint of a concentration-inhibition curve.
